According to article PMC8585049, “Z-DNA as a Tool for Nuclease-Free DNA Methyltransferase Assay” (International Journal of Molecular Sciences, 2021):
“Also recorded” adds a separate entry of the source. Read-outs that look alike come from different tables or passages of the source.

Experiments:
M.SssI = molecular target: T1, M.SssI (Spiroplasma monobiae, UniProt P15840); assay: smFRET B-Z transition-based DNA methylation (DMT inhibition) assay with M.SssI, UM core substrate; type: biochemical
T1 construct: purchased NEB (New England Biolabs, Inc., Ipswich, MA, USA)
T1 sequence (P15840 whole entry): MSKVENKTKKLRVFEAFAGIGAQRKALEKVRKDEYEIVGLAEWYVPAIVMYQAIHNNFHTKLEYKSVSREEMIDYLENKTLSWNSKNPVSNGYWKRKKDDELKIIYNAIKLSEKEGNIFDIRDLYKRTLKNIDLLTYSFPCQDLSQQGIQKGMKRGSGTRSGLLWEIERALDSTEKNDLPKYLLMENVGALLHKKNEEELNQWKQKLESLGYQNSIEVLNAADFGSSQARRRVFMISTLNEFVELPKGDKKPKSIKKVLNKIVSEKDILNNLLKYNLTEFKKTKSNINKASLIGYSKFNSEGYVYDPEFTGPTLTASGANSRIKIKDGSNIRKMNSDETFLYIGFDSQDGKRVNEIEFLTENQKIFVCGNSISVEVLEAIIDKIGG
Description: (§1) Here we define the degree of inhibition as: DOI=P(Z;DMT)−P(Z;DMT+drug)/P(Z;DMT)−P(Z;0) where P(Z;0) is the population of Z-DNA without any treatment (neither DMT nor inhibitor drug), P(Z;DMT) the Z-DNA population after incubation with DMT, and P(Z;DMT+drug) the Z-DNA population after incubation with DMT together with an inhibitor drug. […] On the opposite limit, the inhibition would be complete (DOI = 1) if P(Z;DMT+drug) completely reduces to the level of P(Z;0) . We employed the UM and HM molecules as substrates for M.SssI and DNMT1, respectively. We used 50 mM Mg^2+ and applied 80 U/mL M.SssI or 100 U/mL DNMT1. […] To check this possibility, we reduced SAM to 10 μM and repeated the inhibitor assay.
(§2) DMTs can change cytosine to methylcytosine by converting SAM to SAH (S-adenosyl homocysteine). In the inhibitor-free assay, we added reagents to water (or 0, 1.75, and 2.5% DMSO in water in control reactions for inhibitor assays) in the following order: SAM, 10× buffer, DNA, and M.SssI or DNMT1. In the DNMT1 assay, the reaction mixture of 20 μL contained 25 nM DNA duplex and 20~400 U/mL (in the inhibitor-free assays) or 100 U/mL (in the inhibitor assays) DNMT1 in the reaction buffer (160 μM SAM and 100 μg/mL BSA in 1× DNMT1 buffer (200 mM NaCl, 50 mM Tris-HCl, 1 mM EDTA, 1 mM DTT, 50% glycerol, pH 7.5)). In the M.SssI assay, the reaction mixture of 20 μL contained 25 nM DNA duplex and 10~200 U/mL (in the inhibitor-free assays) or 80 U/mL (in the inhibitor assays) M.SssI in the reaction buffer (160 μM SAM in 1× NEB buffer 2 (50 mM NaCl, 10 mM Tris-HCl, 10 mM MgCl2, 1 mM DTT, pH 7.9)). The effect of DMSO itself was tested because it was used in a solvent for DMT inhibitors. […] The mixture was incubated at 37 °C. After various lengths of incubation time (typically 2 h), the methylation reaction was stopped by heat inactivation of the enzymes at 65 °C for 20 min and the reaction mixtures were stored at −20 °C until the future experiments with the smFRET technique.
In the DMT inhibition assays, DMT inhibitors at various concentrations were added together with either M.SssI or DNMT1 when the enzyme was added to the reaction tube (Figure 4A). The reaction and analysis were performed identically except for the addition of inhibitors. […] In these assays, we varied the concentrations of the reagents (proteins or inhibitors) or incubation times. […]

[1] = molecular target: T2, human DNA methyltransferase 1 (DNMT1) (Homo sapiens, UniProt P26358); assay: smFRET B-Z transition-based DNA methylation (DMT inhibition) assay with DNMT1, HM core substrate; type: biochemical; settings: 100 U/mL DNMT1, HM core, 160 μM SAM, 50 mM Mg2+, 2-h incubation; read-out: IC50 (degree of inhibition of DNMT1 methylation activity)
T2 construct: purchased NEB (New England Biolabs, Inc., Ipswich, MA, USA)
T2 sequence (P26358 whole entry): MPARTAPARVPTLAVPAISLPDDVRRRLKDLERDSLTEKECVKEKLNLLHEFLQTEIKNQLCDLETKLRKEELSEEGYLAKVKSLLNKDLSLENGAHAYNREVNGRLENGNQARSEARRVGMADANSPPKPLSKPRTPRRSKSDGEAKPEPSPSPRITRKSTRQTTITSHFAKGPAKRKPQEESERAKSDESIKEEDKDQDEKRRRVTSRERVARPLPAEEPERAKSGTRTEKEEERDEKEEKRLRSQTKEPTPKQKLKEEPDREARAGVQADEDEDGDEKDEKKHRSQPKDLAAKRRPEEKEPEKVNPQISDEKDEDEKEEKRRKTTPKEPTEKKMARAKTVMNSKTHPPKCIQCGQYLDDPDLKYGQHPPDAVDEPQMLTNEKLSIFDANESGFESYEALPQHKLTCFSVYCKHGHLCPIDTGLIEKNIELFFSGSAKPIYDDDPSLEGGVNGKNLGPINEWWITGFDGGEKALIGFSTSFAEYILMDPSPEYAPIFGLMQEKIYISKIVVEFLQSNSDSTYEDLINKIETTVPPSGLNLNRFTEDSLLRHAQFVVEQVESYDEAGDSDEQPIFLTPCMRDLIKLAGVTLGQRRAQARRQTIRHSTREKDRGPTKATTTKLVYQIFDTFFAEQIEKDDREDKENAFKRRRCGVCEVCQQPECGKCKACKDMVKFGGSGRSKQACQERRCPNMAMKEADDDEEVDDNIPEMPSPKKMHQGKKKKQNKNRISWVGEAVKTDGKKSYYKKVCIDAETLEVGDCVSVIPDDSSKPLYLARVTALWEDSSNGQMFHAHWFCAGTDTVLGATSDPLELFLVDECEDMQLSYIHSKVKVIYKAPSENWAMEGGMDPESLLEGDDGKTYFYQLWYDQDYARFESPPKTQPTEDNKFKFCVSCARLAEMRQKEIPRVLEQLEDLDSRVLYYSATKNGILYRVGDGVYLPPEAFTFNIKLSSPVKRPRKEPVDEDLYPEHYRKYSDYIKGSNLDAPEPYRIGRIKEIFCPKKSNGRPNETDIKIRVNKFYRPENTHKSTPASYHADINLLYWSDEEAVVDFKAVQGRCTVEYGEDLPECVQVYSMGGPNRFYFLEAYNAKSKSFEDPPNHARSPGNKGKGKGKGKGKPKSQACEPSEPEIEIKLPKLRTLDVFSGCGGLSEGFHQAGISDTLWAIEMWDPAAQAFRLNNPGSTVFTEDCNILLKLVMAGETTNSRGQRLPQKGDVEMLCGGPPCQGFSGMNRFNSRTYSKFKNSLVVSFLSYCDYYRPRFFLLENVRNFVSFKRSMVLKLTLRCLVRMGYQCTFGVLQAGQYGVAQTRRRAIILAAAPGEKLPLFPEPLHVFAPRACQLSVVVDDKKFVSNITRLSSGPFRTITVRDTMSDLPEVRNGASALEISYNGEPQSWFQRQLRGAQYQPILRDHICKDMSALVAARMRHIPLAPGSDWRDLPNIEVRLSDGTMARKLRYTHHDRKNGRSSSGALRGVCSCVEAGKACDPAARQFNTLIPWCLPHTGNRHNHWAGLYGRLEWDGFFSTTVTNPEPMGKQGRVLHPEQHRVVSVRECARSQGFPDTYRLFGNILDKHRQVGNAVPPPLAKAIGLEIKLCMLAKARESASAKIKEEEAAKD
Description: as §1
as §2, with “technique. […]” for “technique.”

O=c1c(-c2ccc(O)cc2)coc2cc(O)cc(O)c12 [genistein]
IC50 (M.SssI; IC50 (degree of inhibition of M.SssI methylation activity), 80 U/mL M.SssI, UM core, 160 μM SAM, 50 mM Mg2+, 2-h incubation): ~600 µM | IC50 [1]: ~400 µM

C[S+](C)[O-] [DMSO]
Effect of [DMSO] on DNA methylation activity of M.SssI (M.SssI; [DMSO] up to 5 %, [M.SssI] = 80 U/ml, 50 mM Mg2+, Figure S1): remains unchanged; also recorded: negligible effect

COc1cc(/C=C/C(=O)CC(=O)/C=C/c2ccc(O)c(OC)c2)ccc1O [curcumin]
IC50 [1]: ~1.3 µM

O=C(O[C@@H]1Cc2c(O)cc(O)cc2O[C@@H]1c1cc(O)c(O)c(O)c1)c1cc(O)c(O)c(O)c1 [EGCG, epigallocatechin gallate]
IC50 (M.SssI; 80 U/mL M.SssI, UM core, 160 μM SAM, 50 mM Mg2+, 2-h incubation, read-out: IC50 (degree of inhibition of M.SssI methylation activity)): ~80 µM | IC50 (M.SssI; [SAM] = 10 μM, M.SssI, Figure S8, read-out: IC50 (degree of inhibition of M.SssI methylation activity) with low [SAM]): < 5 µM | IC50 [1]: ~100 µM
